Measurements from patent publication US20240408169A1 (priority 2023, published 2024).
*1 amine or outer side, *2 acyl side, *3 side chain or, on linkers, in order; H or OH if unused. Where a SMILES comes first, the peptide text is derived from it. Bridges are numbered along the chain shown (N, C = ends). [ ]: non-standard residue; d: D form. The star is where a group is joined. X146 = CC(C)C(=O)N1[C@@H]2CC[C@H]1C=C(c1ccc(Cl)cc1C[C@@H](C(=O)[*:2])N(C)[*:1])C2; X42 = CN([C@@H](Cc1cc(Cl)ccc1-c1cnn(S(=O)(=O)C2CC2)c1)C(=O)[*:2])[*:1]; X120 = CN([C@@H](Cc1cc(Cl)ccc1-c1ccn(S(C)(=O)=O)c1)C(=O)[*:2])[*:1]; X141 = CN([C@@H](Cc1cc(Cl)ccc1C1=CCN(S(C)(=O)=O)C1)C(=O)[*:2])[*:1]; X130 = CN([C@@H](Cc1cc(F)ccc1-c1ccn(S(C)(=O)=O)c1)C(=O)[*:2])[*:1]; X137 = CN([C@@H](Cc1cc(F)ccc1-c1cnn(S(C)(=O)=O)c1)C(=O)[*:2])[*:1]; X82 = CN([C@@H](Cc1cc(Cl)ccc1-c1cnn(S(C)(=O)=O)c1)C(=O)[*:2])[*:1]; X171 = CC(=O)N1CC=C(c2ncc(Cl)cc2C[C@@H](C(=O)[*:2])N(C)[*:1])CC1; X187 = CC(=O)N1CC=C(c2ccc(Cl)cc2C[C@@H](C(=O)[*:2])N(C)[*:1])C1; X196 = CN([C@@H](Cc1cc(F)ccc1-c1cnn2ccncc12)C(=O)[*:2])[*:1]; NMehhhLys(Me) = CN([C@@H](CCCCCCCN(C)[*:3])C(=O)[*:2])[*:1]; X118 = Cc1cc(-c2ccc(Cl)cc2C[C@@H](C(=O)[*:2])N(C)[*:1])cnn1; X117 = Cc1cc(-c2ccc(F)cc2C[C@@H](C(=O)[*:2])N(C)[*:1])cnn1; NMe(hhhLys) = CN([C@@H](CCCCCCCN[*:3])C(=O)[*:2])[*:1]; Oxane2carbonyl(2R-CF3) = O=C([C@@]1(C(F)(F)F)CCCCO1)*; X152 = CN([C@@H](Cc1cc(Cl)ccc1OC1CC1)C(=O)[*:2])[*:1]; cBuCO(3,3-F2-1-CF3) = O=C(C1(C(F)(F)F)CC(F)(F)C1)*; Pro(trans-4-F) = O=C(O)[C@@H]1C[C@@H](F)CN1; Pivaloyl(3,3,3-F3) = CC(C)(C(=O)*)C(F)(F)F; Gly(cPr) = N[C@H](C(=O)O)C1CC1

Columns and labels:
OVCAR3 cells = test: MTT proliferation assay, OVCAR3; format: cell-based; conditions: 5 days compound exposure, 1:3 serial dilution starting at 10 μM;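 note: compound given as an 8- or 10-point series, one day after plating, with exposure covering roughly 3-4 cell doublings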
CyclinE1/CDK2 = target: T1, CyclinE1/CDK2 (Homo sapiens, UniProt P24864); test: Fluorescence Polarization (FP) competitive binding assay, Cyclin E1/Cdk2; conditions: 10 nM Cyclin E1/Cdk2, 2 nM FAM probe; average of 2-3 independent experiments; read-out: Cyclin E FP IC50;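 note: readings taken after two-hour equilibration at room temperature in HEPES buffer with NaCl, DTT, NP-40 and BSA, IC50 fitted from eight-concentration serial dilution series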
T1 construct: purchased Eurofins, discovery 14-475

CyclinA2/CDK2 = target: T2, CyclinA2/CDK2 (Homo sapiens, UniProt P20248); test: Fluorescence Polarization (FP) competitive binding assay, Cyclin A2/Cdk2; conditions: 8 nM Cyclin A2/Cdk2, 2 nM FAM probe; average of 2-3 independent experiments; read-out: Cyclin A FP IC50;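 note: plates equilibrated two hours at room temperature before polarization reading, IC50 fitted from eight-concentration compound titration curves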
T2 construct: purchased CRELUX Protein Services

CyclinB1/CDK1 = target: T3, CyclinB1/CDK1 (Homo sapiens, UniProt P14635); test: Fluorescence Polarization (FP) competitive binding assay, Cyclin B1/Cdk1; conditions: 10 nM Cyclin B1/Cdk1, 2 nM FAM probe; average of 2-3 independent experiments; read-out: Cyclin B FP IC50;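 note: fluorescence polarization read after equilibration at room temperature, with IC50 taken from serially diluted dose-response curves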
T3 construct: purchased Eurofins, discovery 14-450

NCI-H1048 cells = test: MTT proliferation assay, NCI-H1048; format: cell-based; conditions: 5 days compound exposure, 1:3 serial dilution starting at 10 μM;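 note: Dose-response in 96-well plates over 8 or 10 concentration points, with exposure spanning 3-4 cell doublings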

SMILES	GI50 (OVCAR3 cells) [nM]	IC50 (CyclinE1/CDK2) [nM]	IC50 (CyclinA2/CDK2) [nM]	IC50 (CyclinB1/CDK1) [nM]	GI50 (NCI-H1048 cells) [nM]
Cc1cc(-c2ccc(F)cc2C[C@H]2C(=O)NCCCCCCC[C@H](N(C)C(=O)[C@@H](NC(=O)[C@@H]3C[C@@H](F)CN3C(=O)C3(C(F)(F)F)CC(F)(F)C3)C3CC3)C(=O)N[C@@H](CC(C)C)C(=O)N2C)cnn1 [Example 294] ({cBuCO(3,3-F2-1-CF3)}-[Pro(trans-4-F)][Gly(cPr)][NMe(hhhLys)]L[X117]; lactam 3-C)	130	1440	80	20	80
Cc1cc(-c2ccc(Cl)cc2C[C@H]2C(=O)NCCCCCCC[C@H](N(C)C(=O)[C@@H](NC(=O)[C@@H]3C[C@@H](F)CN3C(=O)C3(C(F)(F)F)CC(F)(F)C3)C3CC3)C(=O)N[C@@H](CC(C)C)C(=O)N2C)cnn1 [Example 295] ({cBuCO(3,3-F2-1-CF3)}-[Pro(trans-4-F)][Gly(cPr)][NMe(hhhLys)]L[X118]; lactam 3-C)	160	3690	70	20	80
Cc1cc(-c2ccc(Cl)cc2C[C@H]2C(=O)N(C)CCCCCCC[C@H](N(C)C(=O)[C@@H](NC(=O)[C@@H]3C[C@@H](F)CN3C(=O)C3(C(F)(F)F)CC(F)(F)C3)C3CC3)C(=O)N[C@@H](CC(C)C)C(=O)N2C)cnn1 [Example 296] ({cBuCO(3,3-F2-1-CF3)}-[Pro(trans-4-F)][Gly(cPr)][NMehhhLys(Me)]L[X118]; lactam 3-C)	100	2810	70	20	70
CC(C)C[C@@H]1NC(=O)[C@@H](N(C)C(=O)[C@@H](NC(=O)[C@@H]2C[C@@H](F)CN2C(=O)C2(C(F)(F)F)CC(F)(F)C2)C2CC2)C/C=C\CCCCN(C)C(=O)[C@H](Cc2cc(Cl)ccc2-c2cnn(S(C)(=O)=O)c2)N(C)C1=O [Example 298]	20	440	50	20	10
CC(C)C[C@@H]1NC(=O)[C@@H](N(C)C(=O)[C@@H](NC(=O)[C@@H]2C[C@@H](F)CN2C(=O)C2(C(F)(F)F)CC(F)(F)C2)C2CC2)CCCCCCCNC(=O)[C@H](Cc2cc(Cl)ccc2-c2cnn(S(=O)(=O)C3CC3)c2)N(C)C1=O [Example 300] ({cBuCO(3,3-F2-1-CF3)}-[Pro(trans-4-F)][Gly(cPr)][NMe(hhhLys)]L[X42]; lactam 3-C)	40	680	30	20	30
CC(C)C[C@@H]1NC(=O)[C@@H](N(C)C(=O)[C@@H](NC(=O)[C@@H]2C[C@@H](F)CN2C(=O)C(C)(C)C(F)(F)F)C2CC2)CCCCCCCN(C)C(=O)[C@H](Cc2cc(Cl)ccc2-c2cnn(S(C)(=O)=O)c2)N(C)C1=O [Example 301] ({Pivaloyl(3,3,3-F3)}-[Pro(trans-4-F)][Gly(cPr)][NMehhhLys(Me)]L[X82]; lactam 3-C)	20	320	40	20	20
CC(=O)N1CC=C(c2ncc(Cl)cc2C[C@H]2C(=O)NCCCCCCC[C@H](N(C)C(=O)[C@@H](NC(=O)[C@@H]3C[C@@H](F)CN3C(=O)C3(C(F)(F)F)CC(F)(F)C3)C3CC3)C(=O)N[C@@H](CC(C)C)C(=O)N2C)CC1 [Example 302] ({cBuCO(3,3-F2-1-CF3)}-[Pro(trans-4-F)][Gly(cPr)][NMe(hhhLys)]L[X171]; lactam 3-C)	120	3560	50	20	140
CC(C)C[C@@H]1NC(=O)[C@@H](N(C)C(=O)[C@@H](NC(=O)[C@@H]2C[C@@H](F)CN2C(=O)[C@@]2(C(F)(F)F)CCCCO2)C2CC2)CCCCCCCN(C)C(=O)[C@H](Cc2cc(F)ccc2-c2cnn(S(C)(=O)=O)c2)N(C)C1=O [Example 303] ({Oxane2carbonyl(2R-CF3)}-[Pro(trans-4-F)][Gly(cPr)][NMehhhLys(Me)]L[X137]; lactam 3-C)	10	100	30	20	10
CC(C)C[C@@H]1NC(=O)[C@@H](N(C)C(=O)[C@@H](NC(=O)[C@@H]2C[C@@H](F)CN2C(=O)C(C)(C)C(F)(F)F)C2CC2)CCCCCCCN(C)C(=O)[C@H](Cc2cc(F)ccc2-c2cnn(S(C)(=O)=O)c2)N(C)C1=O [Example 304] ({Pivaloyl(3,3,3-F3)}-[Pro(trans-4-F)][Gly(cPr)][NMehhhLys(Me)]L[X137]; lactam 3-C)	10	190	40	20	10
CC(C)C[C@@H]1NC(=O)[C@@H](N(C)C(=O)[C@@H](NC(=O)[C@@H]2C[C@@H](F)CN2C(=O)C2(C(F)(F)F)CC(F)(F)C2)C2CC2)CCCCCCCN(C)C(=O)[C@H](Cc2cc(F)ccc2-c2ccn(S(C)(=O)=O)c2)N(C)C1=O [Example 306] ({cBuCO(3,3-F2-1-CF3)}-[Pro(trans-4-F)][Gly(cPr)][NMehhhLys(Me)]L[X130]; lactam 3-C)	10	200	20	20	10
CC(C)C[C@@H]1NC(=O)[C@@H](N(C)C(=O)[C@@H](NC(=O)[C@@H]2C[C@@H](F)CN2C(=O)C2(C(F)(F)F)CC(F)(F)C2)C2CC2)CCCCCCCN(C)C(=O)[C@H](Cc2cc(Cl)ccc2-c2ccn(S(C)(=O)=O)c2)N(C)C1=O [Example 307] ({cBuCO(3,3-F2-1-CF3)}-[Pro(trans-4-F)][Gly(cPr)][NMehhhLys(Me)]L[X120]; lactam 3-C)	10	440	20	20	10
CC(=O)N1CC=C(c2ccc(Cl)cc2C[C@H]2C(=O)N(C)CCCCCCC[C@H](N(C)C(=O)[C@@H](NC(=O)[C@@H]3C[C@@H](F)CN3C(=O)C3(C(F)(F)F)CC(F)(F)C3)C3CC3)C(=O)N[C@@H](CC(C)C)C(=O)N2C)C1 [Example 308] ({cBuCO(3,3-F2-1-CF3)}-[Pro(trans-4-F)][Gly(cPr)][NMehhhLys(Me)]L[X187]; lactam 3-C)	10	840	20	20	10
CC(C)C[C@@H]1NC(=O)[C@@H](N(C)C(=O)[C@@H](NC(=O)[C@@H]2C[C@@H](F)CN2C(=O)C2(C(F)(F)F)CC(F)(F)C2)C2CC2)CCCCCCCN(C)C(=O)[C@H](Cc2cc(Cl)ccc2C2=CCN(S(C)(=O)=O)C2)N(C)C1=O [Example 309] ({cBuCO(3,3-F2-1-CF3)}-[Pro(trans-4-F)][Gly(cPr)][NMehhhLys(Me)]L[X141]; lactam 3-C)	10	930	20	20	10
CC(C)C[C@@H]1NC(=O)[C@@H](N(C)C(=O)[C@@H](NC(=O)[C@@H]2C[C@@H](F)CN2C(=O)C2(C(F)(F)F)CC(F)(F)C2)C2CC2)CCCCCCCN(C)C(=O)[C@H](Cc2cc(F)ccc2-c2cnn3ccncc23)N(C)C1=O [Example 310] ({cBuCO(3,3-F2-1-CF3)}-[Pro(trans-4-F)][Gly(cPr)][NMehhhLys(Me)]L[X196]; lactam 3-C)	10	990	80	20	10
CC(C)C[C@@H]1NC(=O)[C@@H](N(C)C(=O)[C@@H](NC(=O)[C@@H]2C[C@@H](F)CN2C(=O)C2(C(F)(F)F)CC(F)(F)C2)C2CC2)CCCCCCCNC(=O)[C@H](Cc2cc(Cl)ccc2OC2CC2)N(C)C1=O [Example 311] ({cBuCO(3,3-F2-1-CF3)}-[Pro(trans-4-F)][Gly(cPr)][NMe(hhhLys)]L[X152]; lactam 3-C)	30	200	50	20	20
CC(C)C[C@@H]1NC(=O)[C@@H](N(C)C(=O)[C@@H](NC(=O)[C@@H]2C[C@@H](F)CN2C(=O)C2(C(F)(F)F)CC(F)(F)C2)C2CC2)CCCCCCCNC(=O)[C@H](Cc2cc(Cl)ccc2C2=C[C@@H]3CC[C@H](C2)N3C(=O)C(C)C)N(C)C1=O [Example 312] ({cBuCO(3,3-F2-1-CF3)}-[Pro(trans-4-F)][Gly(cPr)][NMe(hhhLys)]L[X146]; lactam 3-C)	30	740	20	20	20
